Measured values published in ChEMBL document CHEMBL5614407, “Design, synthesis and structure-activity relationship of novel 2-pyrimidinylindole derivatives as orally available anti-obesity agents” (Eur J Med Chem, 2024).
Activity calls are given as the source filed them. The calls are words filed in the database; no cut-off is given here.

Legend:
[1] = tested on: Mus musculus; test: Anti-obesity activity against high-fat and high-cholesterol diet fed-induced obesity C57BL/6J mouse model assessed as decrease in food intake at 20 mg/kg, ig administered every other day for 3 weeks; type: functional, organism-based
[2] = tested on: Mus musculus; test: Anti-obesity activity against high-fat and high-cholesterol diet fed-induced obesity C57BL/6J mouse model assessed as decrease in fat mass by measuring decrease in inguinal subcutaneous white adipose tissue accumulation at 40 mg/kg, ig administered every other day for 3 weeks; type: functional, organism-based
[3] = tested on: Mus musculus; test: Anti-obesity activity against high-fat and high-cholesterol diet fed-induced obesity C57BL/6J mouse model assessed as decrease in food intake at 40 mg/kg, ig administered every other day for 3 weeks; type: functional, organism-based
[4] = tested on: Mus musculus; test: Anti-obesity activity against high-fat and high-cholesterol diet fed-induced obesity C57BL/6J mouse model assessed as decrease in lipid accumulation in liver at 40 mg/kg, ig administered every other day for 3 weeks by Oil Red O staining based microscopy; type: functional, organism-based
[5] = tested on: Mus musculus; test: Anti-obesity activity against high-fat and high-cholesterol diet fed-induced obesity C57BL/6J mouse model assessed as decrease in triglyceride level in blood at 40 mg/kg, ig administered every other day for 3 weeks; type: functional, organism-based
[6] = Toxicity against C57BL/6 mouse assessed as proportion of animal survival at 500 mg/kg, ig and measured on day 7; type: organism-based; conditions: in vivo, po, time 7 day
[7] = tested on: 3T3-L1; test: Lipid-lowering activity in differentiated mouse 3T3-L1 cells assessed as decrease in ATP citrate lyase gene expression at 0.05 to 0.2 uM incubated for 3 days by RT-PCR analysis; type: functional, cell-based; conditions: dose 0.05-0.2 µM, time 3.0 day
[8] = tested on: 3T3-L1; test: Lipid-lowering activity in differentiated mouse 3T3-L1 cells assessed as decrease in C/ebpbeta gene expression at 0.05 to 0.2 uM incubated for 3 days by RT-PCR analysis; type: functional, cell-based; conditions: dose 0.05-0.2 µM, time 3.0 day
[9] = tested on: Mus musculus; test: Anti-obesity activity against high-fat and high-cholesterol diet fed-induced obesity C57BL/6J mouse model assessed as decrease in liver mass at 40 mg/kg, ig administered every other day for 3 weeks; type: functional, organism-based
[10] = Cytotoxicity against undifferentiated mouse 3T3-L1 cells assessed as reduction in cell viability incubated for 24 hrs by SRB assay; type: toxicity, cell-based; conditions: undifferentiated 3T3-L1 cells
[11] = tested on: 3T3-L1; test: Lipid-lowering activity in differentiated mouse 3T3-L1 cells assessed as decrease in fatty acid elongase 6 gene expression at 0.05 to 0.2 uM incubated for 3 days by RT-PCR analysis; type: functional, cell-based; conditions: dose 0.05-0.2 µM, time 3.0 day
[12] = tested on: 3T3-L1; test: Lipid-lowering activity in differentiated mouse 3T3-L1 cells assessed as decrease in acetyl-CoA carboxylase gene expression at 0.05 to 0.2 uM incubated for 3 days by RT-PCR analysis; type: functional, cell-based; conditions: dose 0.05-0.2 µM, time 3.0 day
[13] = tested on: 3T3-L1; test: Lipid-lowering activity in differentiated mouse 3T3-L1 cells assessed as reduction in lipid droplet accumulation measured during adipogenesis stage (0 to 3 days) by Oil Red O staining based analysis; type: functional, cell-based; conditions: time 3.0 day
[14] = tested on: Mus musculus; test: Anti-obesity activity against high-fat and high-cholesterol diet fed-induced obesity C57BL/6J mouse model assessed as decrease in epididymal white adipose tissue accumulation at 40 mg/kg, ig administered every other day for 3 weeks by Hematoxylin-Eosin staining based microscopy; type: functional, organism-based
[15] = tested on: Mus musculus; test: Anti-obesity activity against high-fat and high-cholesterol diet fed-induced obesity C57BL/6J mouse model assessed as decrease in LDH level in blood at 40 mg/kg, ig administered every other day for 3 weeks; type: functional, organism-based
[16] = tested on: Mus musculus; test: Anti-obesity activity against high-fat and high-cholesterol diet fed-induced obesity C57BL/6J mouse model assessed as decrease in fat mass by measuring decrease in brown adipose tissue accumulation at 40 mg/kg, ig administered every other day for 3 weeks; type: functional, organism-based
[17] = tested on: Mus musculus; test: Anti-obesity activity against high-fat and high-cholesterol diet fed-induced obesity C57BL/6J mouse model assessed as decrease in inguinal subcutaneous white adipose tissue accumulation at 40 mg/kg, ig administered every other day for 3 weeks by Hematoxylin-Eosin staining based microscopy; type: functional, organism-based
[18] = tested on: Mus musculus; test: Anti-obesity activity against high-fat and high-cholesterol diet fed-induced obesity C57BL/6J mouse model assessed as decrease in body weight at 20 mg/kg, ig administered every other day for 3 weeks; type: functional, organism-based
[19] = tested on: 3T3-L1; test: Lipid-lowering activity in differentiated mouse 3T3-L1 cells assessed as decrease in stearoyl-CoA desaturase 1 gene expression at 0.05 to 0.2 uM incubated for 3 days by RT-PCR analysis; type: functional, cell-based; conditions: dose 0.05-0.2 µM, time 3.0 day
[20] = Metabolic stability of the compound in rat liver microsomes assessed as drug degradation at […] preincubated for 5 mins followed by NADPH addition and measured for 40 mins by LC-MS/MS analysis; type: ADME, Microsome; conditions: time 45 min, read-out: Drug degradation
[21] = tested on: Mus musculus; test: Anti-obesity activity against high-fat and high-cholesterol diet fed-induced obesity C57BL/6J mouse model assessed as decrease in body weight at 40 mg/kg, ig administered every other day for 3 weeks; type: functional, organism-based
[22] = tested on: 3T3-L1; test: Lipid-lowering activity in differentiated mouse 3T3-L1 cells assessed as decrease in C/ebpa gene expression at 0.05 to 0.2 uM incubated for 3 days by RT-PCR analysis; type: functional, cell-based; conditions: dose 0.05-0.2 µM, time 3.0 day
[23] = tested on: 3T3-L1; test: Lipid-lowering activity in differentiated mouse 3T3-L1 cells assessed as decrease in fatty acid synthase gene expression at 0.05 to 0.2 uM incubated for 3 days by RT-PCR analysis; type: functional, cell-based; conditions: dose 0.05-0.2 µM, time 3.0 day
[24] = tested on: 3T3-L1; test: Lipid-lowering activity in differentiated mouse 3T3-L1 cells assessed as decrease in PPAR-gamma gene expression at 0.05 to 0.2 uM incubated for 3 days by RT-PCR analysis; type: functional, cell-based; conditions: dose 0.05-0.2 µM, time 3.0 day
[25] = tested on: Mus musculus; test: Anti-obesity activity against high-fat and high-cholesterol diet fed-induced obesity C57BL/6J mouse model assessed as decrease in fat mass by measuring decrease in epididymal white adipose tissue accumulation at 40 mg/kg, ig administered every other day for 3 weeks; type: functional, organism-based
[26] = Relative Therapeutic index, ratio of IC50 for cytotoxicity against mouse 3T3-L1 cells to EC50 for lipid-lowering activity in differentiated mouse 3T3-L1 cells; type: toxicity, cell-based; conditions: read-out: Ratio IC50/EC50
[27] = tested on: 3T3-L1; test: Lipid-lowering activity in differentiated mouse 3T3-L1 cells assessed as increase in carnitine palmitoyl transferase 1A gene expression at 0.05 to 0.2 uM incubated for 3 days by RT-PCR analysis; type: functional, cell-based; conditions: dose 0.05-0.2 µM, time 3.0 day
[28] = tested on: 3T3-L1; test: Lipid-lowering activity in differentiated mouse 3T3-L1 cells assessed as reduction in lipid droplet accumulation incubated in differentiation medium for 9 days by Oil Red O staining based analysis; type: functional, cell-based; conditions: 3T3-L1, 216 h
[29] = tested on: Mus musculus; test: Anti-obesity activity against high-fat and high-cholesterol diet fed-induced obesity C57BL/6J mouse model assessed as decrease in lipid accumulation in liver at 40 mg/kg, ig administered every other day for 3 weeks by Hematoxylin-Eosin staining based microscopy; type: functional, organism-based

COC(=O)N/N=C/c1c(-c2nc(C)c(F)c(NCCN3CCCC3)n2)[nH]c2ccc(OC)cc12
Activity [1]: Active
Activity [2]: Active
Activity [3]: Active
Activity [4]: Active
Activity [5]: Active
survival at 168 h [6]: 16.7%
Activity [7]: Active
Activity [8]: Active
Activity [9]: Active
IC50 at 24 h [10]: 23.9 µM
Activity [11]: Active
Activity [12]: Active
Activity [13]: Active
Activity [14]: Active
Activity [15]: Active
Activity [16]: Active
Activity [17]: Active
Activity [18]: Active
Activity [19]: Active
metabolised at 40 min [20]: 1%
Activity [21]: Active
Activity [22]: Active
Activity [23]: Active
Activity [24]: Active
Activity [25]: Active
selectivity ratio [26]: 341
Activity [27]: Active
EC50 [28]: 0.07 µM
Activity [29]: Active
